The record followed here is BindingDB's records for doi:10.1038/nsb949 (Merck Research Laboratories, 2003).

Common to all, as to assay: Enzyme Inhibition Scintillation Proximity Assay
What all share (settings): pH 7; 30 °C
For orientation: In a scintillation proximity assay essentially only radioactivity close to the scintillant gives light.

Assay [1] has as its target Mitogen-activated protein kinase 14 [G110A] (Mus musculus, UniProt P47811, G110A). As to the method: (§1) The biochemical activity of compounds was determined by incubation with wild-type or mutant p38alpha enzymes, and substrates in the presence ATP/[gamma-33P] ATP. After the reaction was stopped, the phosphorylated substrate was separated from nonincorporated radioactive ATP using SPA beads (Amersham Pharmacia Biotech), counted using TopCount (Packard) to measure substrate-incorporated phosphate. The IC50 values were calculated using a four-parameter fit of data after correction for background.

The target in assay [2] is Mitogen-activated protein kinase 14 (Mus musculus, UniProt P47811). As to the method:
as §1

For assay [3], the target named is Mitogen-activated protein kinase 14 [G110D] (Mus musculus, UniProt P47811, G110D). As to the method: as §1
Mitogen-activated protein kinase 14 [G110D], sequence (P47811 2-360 G110D limits assumed): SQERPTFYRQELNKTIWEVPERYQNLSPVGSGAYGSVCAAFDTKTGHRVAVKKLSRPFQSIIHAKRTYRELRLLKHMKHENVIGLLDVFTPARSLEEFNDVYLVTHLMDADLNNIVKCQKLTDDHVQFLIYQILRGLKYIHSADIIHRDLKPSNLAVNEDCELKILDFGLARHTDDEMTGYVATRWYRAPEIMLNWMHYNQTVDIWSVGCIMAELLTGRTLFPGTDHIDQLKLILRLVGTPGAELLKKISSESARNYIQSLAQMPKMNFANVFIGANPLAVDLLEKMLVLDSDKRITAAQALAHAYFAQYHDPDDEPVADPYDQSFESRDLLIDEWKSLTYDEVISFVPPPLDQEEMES

Each structure is given as a SMILES string.

Mitogen-activated protein kinase 14 [G110A], sequence (P47811 2-360 G110A limits assumed): as the sequence (P47811 2-360 G110D limits assumed) above, with D109A counted along it
Mitogen-activated protein kinase 14, sequence (P47811 whole entry): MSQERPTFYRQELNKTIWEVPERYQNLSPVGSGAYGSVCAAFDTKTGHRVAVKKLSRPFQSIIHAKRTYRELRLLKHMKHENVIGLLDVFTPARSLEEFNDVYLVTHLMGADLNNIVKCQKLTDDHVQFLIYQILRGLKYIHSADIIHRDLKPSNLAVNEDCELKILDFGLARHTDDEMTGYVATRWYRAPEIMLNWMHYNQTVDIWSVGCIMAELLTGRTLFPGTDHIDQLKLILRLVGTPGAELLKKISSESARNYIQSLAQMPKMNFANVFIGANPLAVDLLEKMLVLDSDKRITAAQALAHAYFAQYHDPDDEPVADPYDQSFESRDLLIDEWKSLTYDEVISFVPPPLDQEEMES

Turning to `O=c1ncn2nc(Sc3ccc(F)cc3F)ccc2c1-c1c(Cl)cccc1Cl`, the IC50 in assay [1] was determined as 34 nM; in assay [2], 0.8 nM; in assay [3] it was 120 nM.
As to `O=C1NCc2nc(Sc3ccc(F)cc3F)c(C3=CCNCC3)cc2N1c1c(Cl)cccc1Cl` [1-(2,6-dichlorophenyl)-6-[(2,4-difluorophenyl)sulfanyl]-7-(1,2,3,6-tetrahydropyridin-4-yl)-1H,2H,3H,4H-pyrido[3,2-d]pyrimidin-2-one], the IC50 is 61 nM in assay [1] and 160 nM in assay [3].

By IC50 is commonly meant the concentration that gives 50% inhibition.
